For one assay, the system named is human PBMCs. Nature of the assay: IFN-α induction assay: IFN-α induction by TLR agonists in human PBMCs (Luminex). Type of assay: cell-based. Conditions: 24 h incubation; for minimal effective concentration: PBMC; for Minimum effective concentration IFN-α release: Table 2. The procedure: IFN-α Induction Assay—IFN-α Induction by TLR Agonists in Human PBMCs
Materials and Devices: Bio Plex 200 Luminex device, and BioPlex Manager software; MultiScreen Filter Plates (Millipore, MABVN1250); low binding reaction vials 1.5 ml (Sarstedt, 72.706.600); Activation Buffer: 0.1M Na-dihydrogen phosphate, 0.1M Di-Na hydrogen phosphate pH 6.2; Sulfo-NHS (N-hydroxysulfosuccinimide) solution: 50 mg/ml in water (freshly prepared); EDC solution: 50 mg/ml in water (freshly prepared); Coupling Buffer: PBS; Washing Buffer: PBS+0.05% Tween20; Blocking Buffer: PBS+10 mg/ml BSA+0.05% sodium azide; Assay Buffer: PBS+10 mg/ml BSA;
In each well of a 96-well U-bottom plate 200,000 PBMCs were pre-incubated in medium (RPMI1640−Gibco #61870-044÷10% FBS+1% L-glutamine) for 5 hours at 37° C. and 5% CO2 before the compounds of the present invention or controls were added, respectively. Upon addition of compounds of the present invention or controls, the cells are incubated for another 24 h at 37° C. and 5% Co2.
Luminex assay, Step 1: Coupling of antibody to beads: • transfer a suspension (beads are stored in buffer as provided by manufacturer) of about 5 million MicroPlex Microspheres (=beads) into a low binding reaction vial • centrifuge bead suspension for 1 min at 10,000 g, discard supernatant and resuspend pellet in 160 μl Activation Buffer, repeat once • add 20 μl Sulfo-NHS solution and 20 μl EDC solution, vortex • incubate for 20 min in the absence of light • centrifuge bead suspension for 1 min at 10,000 g, discard supernatant and resuspend pellet in 500 μl Coupling Buffer, repeat once • add capture antibody (CaptureAK eBioscience #BMS160, 5 μg per 1 Mio beads) • incubate 2 h at RT in the absence of light while swaying • centrifuge bead suspension for 1 min at 10,000 g, discard supernatant and resuspend pellet in 500 μl Washing Buffer, repeat once • centrifuge bead suspension for 1 min at 10,000 g, discard supernatant and resuspend pellet in 100 μl Blocking Buffer
Luminex Assay, Step 2: Measurement • add 100 μl Assay Buffer into each filter plate well (seal any unused wells with adhesive tape), then remove buffer • add about 2,000 beads per well per analyte (per analyte, a different bead type with distinct fluorescence color is used), suspended in 50 μL of Assay Buffer • remove buffer and wash twice with 100 μl Washing Buffer per well • per well, add 50 μl sample solution from the (pre-)incubation step (cell supernatant), or Standard (IFN-α standard eBioscience #BMS216MST—concentration gradient, highest standard concentration 2500 pg/ml) or Assay Buffer (as blanks) • shake plate • incubate plate for 2 h at RT in the absence of light, while swaying the plate • wash three times with 100 μl Washing Buffer per well • add 25 μl antibody detection mix (DetectionAK eBioscience #BMS1016BT diluted 1:1000) in Assay Buffer per well, then vortex plate • incubate plate for 1 h at RT in the absence of light, while swaying the plate • wash three times with 100 μl Washing Buffer per well • add 50 μl Streptavidin/PE (diluted 1:200 in Assay Buffer) per well, then vortex plate • incubate plate for 10 min at RT in the absence of light, while swaying the plate • wash three times with 100 μl Washing Buffer per well • add 100 μl Assay Buffer per well, then vortex plate • start Luminex measurement according to manufacturer's instructions, measuring at least 50 beads per well per analyte
The compounds were tested at 8 different concentrations (1 μM, 0.3 μM, 0.1 μM, 0.03 μM, 0.01 μM 0.003 μM, 0.001 μM, 0.0003 μM) using a half-logarithmic dilution. The release of Interferon-alpha (IFN-α) presents a bell-shaped distribution within the dilution window. The minimum effective concentration (MEC) is the lowest concentration required to induce the desired IFN-α release. It represents the outset of the bell-shaped distribution and is given in nM. […]

In the next assay the test system is IFN-α secretion. Nature of the assay: In vivo profiling: plasma IFN-α after single intravenous infusion in cynomolgus monkeys (ELISA). Conditions: cynomolgus monkey, 30 min i.v. infusion. The procedure:
In the following studies, a compound according to the invention was examined in an in vivo cynomolgus monkey model. It is evaluated whether and at which applied dose the compounds cause secretion of IFN-α.
In particular, a defined single dose of test compound was applied intravenously to cynomolgus monkeys by a thirty minute infusion. At several time points after initiation of the intravenous compound application, blood samples (0.5 mL for approximately 0.25 mL plasma) were collected from the vena cephalica antebrachii or vena saphena into K3EDTA tubes from the animals. Blood samples were stored on crushed ice prior to centrifugation. Plasma was obtained by centrifugation at 4° C. and approximately 1800 g for 10 minutes and was aliquoted into labeled micro tubes and stored frozen at −70° C. or below. Plasma samples were thawed, diluted and used for determination of IFN-α levels using an IFN-α Elisa Kit (e.g. VeriKine™ Cynomolgus/Rhesus IFN-α ELISA Kit) according to the manufacturer's instructions.

The test system of assay [1] is superficial basal cell carcinomas. Conditions: marketed as 5% cream (Aldara); cited from earlier work.
Setting [2] is: comparative compounds, Table 2, read-out: Minimum effective concentration IFN-α release.
[3] abbreviates: lowest concentration inducing the desired IFN-α release, Table 1, read-out: Minimum effective concentration IFN-α release.

Where two headings read alike, the source gives them in different places.

As to `CCc1nc2c(N)nc3ccccc3c2n1CCCCN(C(C)=O)C1CCS(=O)(=O)C1` (stereo not drawn) [7′, N-[4-(4-amino-2-ethyl-1H-imidazo[4,5-c]quinolin-1-yl)butyl]-N-(1,1-dioxidotetrahydro-3-thienyl)acetamide, reference compound], the minimal effective concentration with human PBMCs (setting [2]) worked out at 0.3 µM.
The same measure, in the same setting: as for `CCc1nc2c(N)nc3ccccc3c2n1CCCCN(C(=O)OC)C1CCS(=O)(=O)C1` (stereo not drawn) [8′, reference compound], the figure is 0.1 µM.
Take `CCc1nc2c(N)nc3ccccc3c2n1CCCCN(C(N)=O)C1CCS(=O)(=O)C1` (stereo not drawn) [9′, reference compound]: the minimal effective concentration in the assay on human PBMCs (setting [2]) was determined as 0.3 µM.
Regarding `CCNCc1nc2c(N)nc3ccccc3c2n1CCCCN(C(C)=O)C1CCS(=O)(=O)C1` (stereo not drawn) [10′, reference compound], the “Minimum effective concentration IFN-α release” value in the assay with human PBMCs (comparative compounds) is “inactive”.
As for `CCNCc1nc2c(N)nc3ccccc3c2n1CCCCN(C(=O)OC)C1CCS(=O)(=O)C1` (stereo not drawn) [11′, reference compound], the “Minimum effective concentration IFN-α release” value in the assay on human PBMCs (comparative compounds) was “inactive”.
Regarding `CCNCc1nc2c(N)nc3ccccc3c2n1CCCCN(C(N)=O)C1CCS(=O)(=O)C1` (stereo not drawn) [12′, reference compound], in the assay on human PBMCs (setting [2]), the minimal effective concentration came out at 10 µM.
With `COCCc1nc2c(N)nc3ccccc3c2n1CCCCN(C(C)=O)C1CCS(=O)(=O)C1` (stereo not drawn) [13′, reference compound], the minimal effective concentration in the assay on human PBMCs (setting [2]) was found to be 0.03 µM.
With `COCCc1nc2c(N)nc3ccccc3c2n1CCCCN(C(=O)OC)C1CCS(=O)(=O)C1` (stereo not drawn) [14′, reference compound], the minimal effective concentration in the assay with human PBMCs (setting [2]) is 0.01 µM.
In the case of `COCCc1nc2c(N)nc3ccccc3c2n1CCCCN(C(N)=O)C1CCS(=O)(=O)C1` (stereo not drawn) [15′, reference compound], the minimal effective concentration in the assay on human PBMCs (setting [2]) was 0.1 µM.
As for `CCc1nc2c(N)nc3ccccc3c2n1CCCCN(C(C)=O)C1CS(=O)(=O)C1` [Example 7, N-(4-(4-Amino-2-ethyl-1H-imidazo[4,5-c]quinolin-1-yl)butyl)-N-(1,1-dioxidothietan-3-yl)acetamide], the minimal effective concentration with human PBMCs (setting [3]) turned out to be 0.1 µM. The “peak plasma IFN-α concentration” value is “about 5000 pg/ml” in the assay on IFN-α secretion (single dose 0.3 mg/kg (smallest dose tested)) and “about 30,000 pg/ml” in the assay with IFN-α secretion (single dose 10 mg/kg).
Regarding `CCc1nc2c(N)nc3ccccc3c2n1CCCCN(C(=O)OC)C1CS(=O)(=O)C1` [Example 8, Methyl (4-(4-amino-2-ethyl-1H-imidazo[4,5-c]quinolin-1-yl)butyl)(1,1-dioxidothietan-3-yl)carbamate], in the assay on human PBMCs (setting [3]), the minimal effective concentration was found to be 0.03 µM.
`CCc1nc2c(N)nc3ccccc3c2n1CCCCN(C(N)=O)C1CS(=O)(=O)C1` [Example 9, 1-(4-(4-Amino-2-ethyl-1H-imidazo[4,5-c]quinolin-1-yl)butyl)-1-(1,1-dioxidothietan-3-yl)urea]: the minimal effective concentration with human PBMCs (setting [3]) is 0.1 µM.
Same read-out and setting: the value for `CCNCc1nc2c(N)nc3ccccc3c2n1CCCCN(C(C)=O)C1CS(=O)(=O)C1` [Example 10, N-(4-(4-Amino-2-((ethylamino)methyl)-1H-imidazo[4,5-c]quinolin-1-yl)butyl)-N-(1,1-dioxidothietan-3-yl)acetamide] was 1 µM; that for `CCNCc1nc2c(N)nc3ccccc3c2n1CCCCN(C(=O)OC)C1CS(=O)(=O)C1` [Example 11, Methyl (4-(4-amino-2-((ethylamino)methyl)-1H-imidazo[4,5-c]quinolin-1-yl)butyl)(1,1-dioxidothietan-3-yl)carbamate] was 0.1 µM.
On the same count and under the same terms, as for `CCNCc1nc2c(N)nc3ccccc3c2n1CCCCN(C(N)=O)C1CS(=O)(=O)C1` [Example 12, 1-(4-(4-Amino-2-((ethylamino)methyl)-1H-imidazo[4,5-c]quinolin-1-yl)butyl)-1-(1,1-dioxidothietan-3-yl)urea], the figure is 3 µM; as for `COCCc1nc2c(N)nc3ccccc3c2n1CCCCN(C(C)=O)C1CS(=O)(=O)C1` [Example 13, N-(4-(4-Amino-2-(2-methoxyethyl)-1H-imidazo[4,5-c]quinolin-1-yl)butyl)-N-(1,1-dioxidothietan-3-yl)acetamide], 0.01 µM.
Take `COCCc1nc2c(N)nc3ccccc3c2n1CCCCN(C(=O)OC)C1CS(=O)(=O)C1` [Example 14, Methyl (4-(4-amino-2-(2-methoxyethyl)-1H-imidazo[4,5-c]quinolin-1-yl)butyl)(1,1-dioxidothietan-3-yl)carbamate]: the minimal effective concentration in the assay on human PBMCs (setting [3]) was found to be 0.001 µM.
The same measure, in the same setting: the value for `COCCc1nc2c(N)nc3ccccc3c2n1CCCCN(C(N)=O)C1CS(=O)(=O)C1` [Example 15, 1-(4-(4-Amino-2-(2-methoxyethyl)-1H-imidazo[4,5-c]quinolin-1-yl)butyl)-1-(1,1-dioxidothietan-3-yl)urea] was 0.02 µM.
`CC(C)Cn1cnc2c(N)nc3ccccc3c21` [Imiquimod, imiquimod]: the “5-year clearance of superficial basal cell carcinomas” value in assay [1] is “approx. 80%”.

Values taken from patent publication US11987569B2, “Substituted imidazoquinolines as agonists of TLR7” (BIONTECH SE, priority 2017, dated 2024).
